The target in one experiment is T1, CDK2/CycE (Homo sapiens, UniProt P24941).
T1 construct: GST; purchased ProQinase GmbH (Freiburg, Germany); host or cells: insect cells (Sf9)
As to the kind of experiment: CDK2/CycE kinase assay (TR-FRET, Method 2a). The settings on record: 10 μM ATP. It is filed as biochemical. An excerpt: 2a. CDK2/CycE Kinase Assay:
CDK2/CycE-inhibitory activity of compounds of the present invention was quantified employing the CDK2/CycE TR-FRET assay as described in the following paragraphs:
Recombinant fusion proteins of GST and human CDK2 and of GST and human CycE, expressed in insect cells (Sf9) and purified by Glutathion-Sepharose affinity chromatography, were purchased from ProQinase GmbH (Freiburg, Germany). As substrate for the kinase reaction biotinylated peptide biotin-Ttds-YISPLKSPYKISEG (C-terminus in amid form) was used which can be purchased e.g. from the company JERINI Peptide Technologies (Berlin, Germany).
(§1) For the assay 50 nl of a 100 fold concentrated solution of the test compound in DMSO was pipetted into a black low volume 384 well microtiter plate (Greiner Bio-One, Frickenhausen, Germany), 2 μl of a solution of CDK2/CycE in aqueous assay buffer [50 mM Tris/HCl pH 8.0, 10 mM MgCl2, 1.0 mM dithiothreitol, 0.1 mM sodium ortho-vanadate, 0.01% (v/v) Nonidet-P40 (Sigma)] were added and the mixture was incubated for 15 min at 22° C. to allow pre-binding of the test compounds to the enzyme before the start of the kinase reaction. […] The concentration of CDK2/CycE was adjusted depending of the activity of the enzyme lot and was chosen appropriate to have the assay in the linear range, typical concentrations were in the range of 130 ng/mL. The reaction was stopped by the addition of 5 μl of a solution of TR-FRET detection reagents (0.2 μM streptavidine-XL665 [Cisbio Bioassays, Codolet, France] and 1 nM anti-RB(pSer807/pSer811)-antibody from BD Pharmingen [#558389] and 1.2 nM LANCE EU-W1024 labeled anti-mouse IgG antibody [Perkin-Elmer, product no. AD0077]) in an aqueous EDTA-solution (100 mM EDTA, 0.2% (w/v) bovine serum albumin in 100 mM HEPES pH 7.5).
(§2) The resulting mixture was incubated 1 h at 22° C. to allow the formation of complex between the phosphorylated biotinylated peptide and the detection reagents. Subsequently the amount of phosphorylated substrate was evaluated by measurement of the resonance energy transfer from the Eu-chelate to the streptavidine-XL. Therefore, the fluorescence emissions at 620 nm and 665 nm after excitation at 350 nm was measured in a TR-FRET reader, e.g. a Rubystar (BMG Labtechnologies, Offenburg, Germany) or a Viewlux (Perkin-Elmer). The ratio of the emissions at 665 nm and at […] was taken as the measure for the amount of phosphorylated substrate. The data were normalised (enzyme reaction without inhibitor=0% inhibition, all other assay components but no enzyme=100% inhibition).

The next experiment addresses T2, CDK9/CycT1 (Homo sapiens, UniProt P50750).
T2 construct: Recombinant full-length His-tagged human CDK9 and CycT1; His; purchased Invitrogen PV4131; host or cells: insect cells
Nature of the experiment: CDK9/CycT1 kinase assay (TR-FRET, Method 1a). It is filed as biochemical.
Description: 1a. CDK9/CycT1 Kinase Assay:
CDK9/CycT1-inhibitory activity of compounds of the present invention was quantified employing the CDK9/CycT1 TR-FRET assay as described in the following paragraphs:
as §1, with “Recombinant full-length His-tagged human CDK9 and CycT1, expressed in insect cells and purified by Ni-NTA affinity chromatography, were purchased from Invitrogen (Cat. No PV4131). As substrate for the kinase reaction biotinylated peptide biotin-Ttds-YISPLKSPYKISEG (C-terminus in amid form) was used which can be purchased e.g. from the company JERINI Peptide Technologies (Berlin, Germany). For” for “For”, “CDK9/CycT1” for “CDK2/CycE”, “1 μg/mL.” for “130 ng/mL.”
as §2, with “HTRF” for “TR-FRET”
In general terms: TR-FRET usually uses a lanthanide donor and a delayed reading to cut background.

T2 sequence (P50750 whole entry): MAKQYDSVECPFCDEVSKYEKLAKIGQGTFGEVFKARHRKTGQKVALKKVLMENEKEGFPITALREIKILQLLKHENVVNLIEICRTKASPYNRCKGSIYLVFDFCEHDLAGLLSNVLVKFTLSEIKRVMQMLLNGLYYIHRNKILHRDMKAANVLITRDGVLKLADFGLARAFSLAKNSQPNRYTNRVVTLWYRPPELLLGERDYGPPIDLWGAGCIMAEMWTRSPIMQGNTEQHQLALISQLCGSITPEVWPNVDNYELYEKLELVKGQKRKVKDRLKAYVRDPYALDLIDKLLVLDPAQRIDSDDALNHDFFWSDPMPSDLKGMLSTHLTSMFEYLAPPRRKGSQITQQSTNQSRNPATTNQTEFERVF
T2 sequence (O60563 whole entry partner): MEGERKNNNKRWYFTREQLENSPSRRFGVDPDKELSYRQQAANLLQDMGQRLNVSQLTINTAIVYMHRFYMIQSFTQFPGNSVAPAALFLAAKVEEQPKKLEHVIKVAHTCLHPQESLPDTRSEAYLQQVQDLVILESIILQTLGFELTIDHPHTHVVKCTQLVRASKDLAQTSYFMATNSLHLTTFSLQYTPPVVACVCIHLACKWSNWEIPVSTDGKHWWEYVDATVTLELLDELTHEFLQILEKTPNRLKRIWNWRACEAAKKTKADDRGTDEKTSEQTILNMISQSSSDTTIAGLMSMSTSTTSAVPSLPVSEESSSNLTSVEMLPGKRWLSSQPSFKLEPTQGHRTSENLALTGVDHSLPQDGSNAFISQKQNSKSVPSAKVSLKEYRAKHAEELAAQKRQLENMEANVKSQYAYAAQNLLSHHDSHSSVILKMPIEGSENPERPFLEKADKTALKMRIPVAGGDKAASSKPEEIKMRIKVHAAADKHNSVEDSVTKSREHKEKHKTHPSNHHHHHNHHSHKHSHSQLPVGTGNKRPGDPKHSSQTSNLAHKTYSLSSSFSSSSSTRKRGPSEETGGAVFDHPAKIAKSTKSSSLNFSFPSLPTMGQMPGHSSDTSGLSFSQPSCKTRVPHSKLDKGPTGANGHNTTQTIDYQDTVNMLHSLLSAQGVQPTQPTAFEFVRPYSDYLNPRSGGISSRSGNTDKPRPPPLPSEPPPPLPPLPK

What is called IC50 is the point on the concentration scale where inhibition reaches its midpoint. Lower therefore signals inhibition by little substance. As for “({[15,19-difluoro-3,4-dihydro-2H,11H-10,6-(azeno)-12,16-(metheno)-1,5,11,13-benzodioxadiazacyclooctadecin-8-yl]methyl}sulfonyl)acetic acid [Example 27]”, the IC50 at CDK2/CycE was determined as 2.3 nM; against CDK9/CycT1 (Method 1a, 10 μM ATP) it was 2.9 nM. The “Selectivity CDK9 over CDK2: IC50 (CDK2)/IC50 (CDK9)” value on CDK9/CycT1 (Methods 1a and 2a, minimal values where CDK9 IC50 is at the assay limit) was determined as 0.8.

These data come from patent publication US9963464B2, “Macrocyclic compounds” (Bayer Pharma Aktiengesellschaft, priority 2014, dated 2018).
